What was measured:
Format in all cases: in vivo
[1] = system: conscious guinea pigs; experiment: Herxheimer test: protection against histamine aerosol induced bronchoconstriction; details: administered by aerosol or by oral administration, mean of several experiments
Experimental: • 1. The compounds were examined for their ability to inhibit 5-hydroxytryptamine or histamine induced bronchoconstriction in the anaesthetised, artifically respired guinea pig (Konzett-Rossler preparation). The compounds were administered intravenously. The results are shown in Table A. [formula] • 2. Compound 3 was also examined for its ability to protect conscious guinea pigs against bronchoconstriction induced by an histamine aerosol (Herxheimer test). In these experiments the compound was administered by aerosol or by oral administration. The results are the mean of several experiments. Compound 3 was active at 10 mg/kg.

[2] = system: anaesthetised, perfused rat stomach preparation; experiment: Inhibition of pentagastrin-stimulated gastric acid secretion (Ghosh and Schild preparation); details: i.v.
Experimental: The compounds were examined for their ability to inhibit pentagastrin-stimulated gastric acid secretion in the anaesthetised, perfused rat stomach preparation (Ghosh and Schild preparation). The compounds were administered intravenously.

[3] = system: rat; experiment: Anti-ulcer activity: inhibition of indomethacin induced gastric damage; details: gastric damage score 1-9; 50mg/kg orally 30 minutes prior to 15mg/kg indomethacin subcutaneously; sacrificed 4 hours later; vehicle 4.57 ± 0.69; p <0.01 (Mann Witney)
Experimental: Anti-ulcer activity was assessed by the inhibition of indomethacin induced gastric damage in the rat according to the method of Eleghe (1974) Israeli J. Med. Sci. 10 1451. Rats were starvedovernight given 15mg/kg indomethacin subcutaneously and sacrificed 4 hours later. Stomachs were reflated with n. saline, cut along the greater curvature pinned out and scored for gastric damage by the following system: • Score 1 - 3 - according to degree of erythema and slight haemorrhage. • Score 4 - 6 - according to degree of mucosal erosion. • Score 7 - 9 - according to depth of gastric damage.
Groups of 7 rats were used for each treatment and the test compound or vehicle were administered 30 minutes prior to giving the indomethacin. Dose of test compound was 50mg/kg orally and control groups receiving vehicle only were set up simultaneously. Mean values for each treatment were obtained using the above scoring system and the Mann Witney test applied for significance of difference between the values obtained with the treatments.

Compound | active at (protection against bronchoconstriction induced by an histamine aerosol) [1] [mg/kg] | inhibited gastric acid secretion at [2] [mg/kg] | Test Mean Score ± S.E. of Mean [3]
CCCCC(C)C(C)(O)CCN1C(=O)CN(C)C(=O)C1CCCCCCC(=O)OC (stereo not shown) [Compound 3] | 10 | 0.2 | 0.71 ± 0.42 (p <0.01)
COC(=O)CCCCCCC1C(=O)N[C@@H](C)C(=O)N1CCC(C)(O)C1CCCCC1 (stereo partly shown) [Compound 9] |  | 0.25 | 

From patent EP0008186A1, “Cyclic diamides, a process for their preparation and their pharmaceutical compositions” (BEECHAM GROUP PLC, priority 1978, dated 1980)
